In one experiment the target is T1, KDR tyrosine kinase (Homo sapiens, UniProt P35968).
T1 construct: encoding most of the cytoplasmic domain, commencing with methionine 806 and including the termination codon; made in house; host or cells: Sf9 insect cells (baculovirus)
The experiment is described as follows: In vitro enzyme assay (ELISA), KDR tyrosine kinase. Particulars: Test (a); ATP 8 μM; read-out: IC50 versus KDR tyrosine kinase. The format is biochemical.

The target of a further experiment is T2, PDGFRα tyrosine kinase (Homo sapiens, UniProt P16234).
T2 construct: PDGFRα, PDGFRβ and KDR receptor cytoplasmic domains, obtained by expression of recombinant protein in insect cells; purchased Upstate Biotechnology Inc. 14-467; host or cells: Sf9 insect cells
The experiment is described as follows: In vitro enzyme assay (ELISA), PDGFRα tyrosine kinase. The format is biochemical. Particulars: Test (a); ATP 14 μM; read-out: IC50 versus PDGFRα tyrosine kinase. On the procedure: The ability of test compounds to inhibit the phosphorylation of a tyrosine containing polypeptide substrate by the tyrosine kinase enzymes PDGFRα, PDGFRβ and KDR was assessed using conventional ELISA assays.
DNA encoding the PDGFRα, PDGFRβ or KDR receptor cytoplasmic domains may be obtained by total gene synthesis (International Biotechnology Lab., 1987, 5(3), 19-25) or by cloning. The DNA fragments may be expressed in a suitable expression system to obtain polypeptide with tyrosine kinase activity. For example, PDGFRα, PDGFRβ and KDR receptor cytoplasmic domains, obtained by expression of recombinant protein in insect cells, can be shown to display intrinsic tyrosine kinase activity. In the case of the VEGF receptor KDR (Genbank Accession No. L04947), a DNA fragment encoding most of the cytoplasmic domain, commencing with methionine 806 and including the termination codon may be cloned into a baculovirus transplacement vector [for example pAcYM1 (see The Baculovirus Expression System: A Laboratory Guide, L. A. King and R. D. Possee, Chapman and Hall, 1992) or pAc360 or pBlueBacHis (available from Invitrogen Corporation)]. This recombinant construct may be co-transfected into insect cells [for example Spodoptera frugiperda 21(Sf21) or Spodoptera frugiperda 9(Sf9)] with viral DNA (for example Pharmingen BaculoGold) to prepare recombinant baculovirus. […]

The next experiment concerns the target T3, phospho-Tyr751 PDGFRβ (Homo sapiens, UniProt P09619).
T3 construct: phosphorylation of PDGFR expressed on MG63 osteosarcoma cells; endogenous in cells; host or cells: MG63 osteosarcoma cells
Description: In vitro phospho-Tyr751 PDGFRβ ELISA assay in MG63 osteosarcoma cells. The format is cell-based. The settings on record: Test (b); MG63 cells stimulated with PDGFBB; read-out: IC50 versus phospho-Tyr751 PDGFRβ. The method, then: This assay uses a conventional ELISA method to determine the ability of test compounds to inhibit phosphorylation of tyrosine in PDGFRβ.
The cells were incubated overnight at 37° C. with 7.5% CO2 to allow the cells to adhere to the wells.
The cells were incubated for 90 minutes at 37° C. with 7.5% CO2.
The resultant cells were stimulated with PDGFBB using the following procedure. […] The cells were incubated at 37° C. with 7.5% CO2 for 5 minutes. […] The resultant tissue culture plates were shaken for 5 minutes at ambient temperature to ensure full lysis and then frozen at −20° C. until required.
The wells were washed 5 times (1 minute soak each time) with 300 μl per well of PBST. The wells were treated with 50 μl of 3% BSA in PBST at ambient temperature for 1 hour and subsequently washed twice with 300 μl per well of PBST.
The tissue culture plates with frozen cell lysate were allowed to warm to 0° C. […] Aliquots (50 μl) of chemiluminescent substrate solution were added to each of the wells, the plates were agitated for 2 minutes and luminescence was read on a SpectraFluor Plus plate reader (Tecan UK Ltd., Reading, Berkshire, UK). Analysis for each of the compounds was completed by determining a ratio of the ‘phospho antibody’ plate reading to the ‘total antibody’ plate reading for each test sample and these ratios were plotted to determine the IC50 value of each test compound.
Background: An ELISA detects its analyte on a solid surface through an enzyme-linked reagent.

The target in another experiment is T4, PDGFRβ tyrosine kinase (Homo sapiens, UniProt P09619).
T4 construct: PDGFRα, PDGFRβ and KDR receptor cytoplasmic domains, obtained by expression of recombinant protein in insect cells; purchased Upstate Biotechnology Inc. 14-463; host or cells: Sf9 insect cells
The experiment is described as follows: In vitro enzyme assay (ELISA), PDGFRβ tyrosine kinase. The format is biochemical.

T3 sequence (P09619 33-1106): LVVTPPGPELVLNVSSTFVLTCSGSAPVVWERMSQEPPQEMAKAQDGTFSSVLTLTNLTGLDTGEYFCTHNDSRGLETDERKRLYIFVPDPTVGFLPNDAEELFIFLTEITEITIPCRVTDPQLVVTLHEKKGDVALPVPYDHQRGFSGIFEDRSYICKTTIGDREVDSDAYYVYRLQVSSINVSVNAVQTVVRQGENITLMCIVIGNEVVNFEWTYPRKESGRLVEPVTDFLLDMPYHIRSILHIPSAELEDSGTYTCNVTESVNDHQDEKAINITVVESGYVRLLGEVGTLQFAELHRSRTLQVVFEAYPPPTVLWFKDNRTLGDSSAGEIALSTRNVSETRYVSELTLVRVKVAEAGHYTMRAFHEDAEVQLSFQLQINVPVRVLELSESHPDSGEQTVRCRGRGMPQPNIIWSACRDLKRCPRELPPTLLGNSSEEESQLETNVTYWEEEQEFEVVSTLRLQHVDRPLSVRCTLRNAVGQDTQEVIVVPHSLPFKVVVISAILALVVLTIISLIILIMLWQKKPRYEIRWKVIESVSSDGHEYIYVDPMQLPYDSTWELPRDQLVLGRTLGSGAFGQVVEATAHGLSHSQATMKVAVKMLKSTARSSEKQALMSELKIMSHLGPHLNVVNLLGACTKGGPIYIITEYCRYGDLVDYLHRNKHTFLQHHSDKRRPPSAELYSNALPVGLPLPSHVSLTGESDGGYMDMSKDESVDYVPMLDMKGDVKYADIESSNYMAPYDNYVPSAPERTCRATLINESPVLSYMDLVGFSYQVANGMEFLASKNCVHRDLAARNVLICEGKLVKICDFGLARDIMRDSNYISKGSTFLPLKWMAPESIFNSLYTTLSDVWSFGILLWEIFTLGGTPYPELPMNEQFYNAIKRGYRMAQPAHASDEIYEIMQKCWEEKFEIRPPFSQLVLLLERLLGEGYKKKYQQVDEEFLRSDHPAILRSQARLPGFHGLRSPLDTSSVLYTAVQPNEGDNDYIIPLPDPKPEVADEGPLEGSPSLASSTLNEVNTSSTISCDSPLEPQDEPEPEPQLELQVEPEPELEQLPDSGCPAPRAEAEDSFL
T1 sequence (P35968 786-1356 limits assumed): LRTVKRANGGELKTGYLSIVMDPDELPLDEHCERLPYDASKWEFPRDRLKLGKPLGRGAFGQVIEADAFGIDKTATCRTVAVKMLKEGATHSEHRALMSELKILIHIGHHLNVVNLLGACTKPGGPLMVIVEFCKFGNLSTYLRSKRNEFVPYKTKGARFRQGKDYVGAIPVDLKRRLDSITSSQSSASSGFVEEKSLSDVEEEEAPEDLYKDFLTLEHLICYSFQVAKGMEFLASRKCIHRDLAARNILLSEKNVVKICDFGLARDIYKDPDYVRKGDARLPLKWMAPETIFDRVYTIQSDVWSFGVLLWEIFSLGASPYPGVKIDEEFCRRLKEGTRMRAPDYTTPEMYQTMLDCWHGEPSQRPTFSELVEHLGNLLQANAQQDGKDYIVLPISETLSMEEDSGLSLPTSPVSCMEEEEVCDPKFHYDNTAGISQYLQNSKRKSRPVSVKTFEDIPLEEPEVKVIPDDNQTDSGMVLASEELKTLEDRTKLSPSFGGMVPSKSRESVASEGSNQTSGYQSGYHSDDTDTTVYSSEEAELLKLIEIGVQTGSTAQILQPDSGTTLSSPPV
T4 sequence (P09619 554-1106 limits assumed): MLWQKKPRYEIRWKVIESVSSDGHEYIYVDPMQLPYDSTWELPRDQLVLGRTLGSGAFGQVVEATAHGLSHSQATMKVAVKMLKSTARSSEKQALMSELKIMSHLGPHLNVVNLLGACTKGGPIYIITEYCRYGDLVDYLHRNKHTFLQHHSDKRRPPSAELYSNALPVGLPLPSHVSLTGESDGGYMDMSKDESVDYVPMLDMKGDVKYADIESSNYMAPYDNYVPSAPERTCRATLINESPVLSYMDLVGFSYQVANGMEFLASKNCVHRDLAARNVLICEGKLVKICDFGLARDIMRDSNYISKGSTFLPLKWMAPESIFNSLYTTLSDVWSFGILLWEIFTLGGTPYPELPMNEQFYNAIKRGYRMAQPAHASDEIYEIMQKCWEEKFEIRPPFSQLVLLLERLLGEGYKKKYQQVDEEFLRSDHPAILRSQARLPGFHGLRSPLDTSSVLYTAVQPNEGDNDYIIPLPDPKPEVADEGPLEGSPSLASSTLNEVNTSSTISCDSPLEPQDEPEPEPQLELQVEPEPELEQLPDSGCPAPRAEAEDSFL
T2 sequence (P16234 550-1089 limits assumed): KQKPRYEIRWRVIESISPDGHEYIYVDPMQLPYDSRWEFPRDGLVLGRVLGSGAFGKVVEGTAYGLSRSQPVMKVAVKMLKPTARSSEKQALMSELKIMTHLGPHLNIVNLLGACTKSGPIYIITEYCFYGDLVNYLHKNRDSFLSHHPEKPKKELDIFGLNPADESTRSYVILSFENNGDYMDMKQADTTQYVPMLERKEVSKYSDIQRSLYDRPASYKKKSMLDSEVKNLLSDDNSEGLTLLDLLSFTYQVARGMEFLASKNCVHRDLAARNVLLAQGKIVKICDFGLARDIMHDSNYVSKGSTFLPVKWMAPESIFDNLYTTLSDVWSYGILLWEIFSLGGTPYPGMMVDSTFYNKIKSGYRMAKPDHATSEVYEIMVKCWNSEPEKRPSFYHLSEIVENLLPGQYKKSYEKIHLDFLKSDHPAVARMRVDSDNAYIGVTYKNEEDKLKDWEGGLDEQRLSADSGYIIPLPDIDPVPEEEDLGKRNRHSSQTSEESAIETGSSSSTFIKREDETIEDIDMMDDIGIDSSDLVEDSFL
Description for KDR tyrosine kinase: For expression, Sf9 cells were infected with plaque-pure KDR recombinant virus and harvested 48 hours later. […] The suspension was centrifuged for 10 minutes at 13,000 rpm at 4° C. The supernatant (stock enzyme solution) was removed and stored in aliquots at −70° C.
(§1) The excess of substrate solution was discarded and the wells were washed in turn with PBS containing 0.05% v/v Tween 20 (PBST; 300 μl/well) and twice with Hepes pH7.4 buffer (50 mM, 300 μl/well) before being blotted dry.
Aliquots (25 μl) of each dilution of test compound were transferred to wells in the washed assay plates. “Maximum” control wells contained diluted DMSO instead of compound. […]
Each kinase enzyme was diluted immediately prior to use with an enzyme diluent comprising 100 mM Hepes pH7.4 buffer, 0.1 mM sodium orthovanadate, 0.1% Triton X-100 and 0.2 mM dithiothreitol. […] The plates were agitated at ambient temperature for about 20 minutes until the optical density value of the “maximum” control wells, as measured at 405 nm using a plate reading spectrophotometer, was approximately 1.0.
Description for PDGFRβ tyrosine kinase: as §1
Aliquots (25 μl) of each dilution of test compound were transferred to wells in the washed assay plates. “Maximum” control wells contained diluted DMSO instead of compound. Aliquots (25 μl) of an aqueous manganese chloride solution (40 mM) containing adenosine-5′-triphosphate (ATP) was added to all test wells except the “blank” control wells which contained magnesium chloride without ATP.
Each kinase enzyme was diluted immediately prior to use with an enzyme diluent comprising 100 mM Hepes pH7.4 buffer, 0.1 mM sodium orthovanadate, 0.1% Triton X-100 and 0.2 mM dithiothreitol. Aliquots (50 μl) of freshly diluted enzyme were added to each well and the plates were agitated at ambient temperature for 20 minutes. […] The plates were agitated at ambient temperature for about 20 minutes until the optical density value of the “maximum” control wells, as measured at 405 nm using a plate reading spectrophotometer, was approximately 1.0.

One may read the IC50 as the concentration at which inhibition is half-maximal. Consider `COc1cc2nccc(Oc3cnn(CC(=O)Nc4cccc(F)c4)c3)c2cc1C#N` [Example 1, N-(3-fluorophenyl)-2-[4-(6-cyano-7-methoxyquinolin-4-yloxy)pyrazol-1-yl]acetamide], for which the IC50 was approximately 6 µM at KDR tyrosine kinase, approximately 0.5 µM at PDGFRα tyrosine kinase, approximately 0.002 µM on phospho-Tyr751 PDGFRβ and approximately 0.1 µM against PDGFRβ tyrosine kinase.

The values are drawn from patent US20090036485A1, “Quinoline derivatives” (priority 2004, published 2009).
